Laboratory results: patent publication US11730712B2, “Functionalized long-chain hydrocarbon mono- and di-carboxylic acids and derivatives thereof, and their use for the prevention or treatment of disease” (ESPERVITA THERAPEUTICS, INC., priority 2021, dated 2023)
Where “and” joins values, the source holds several entries; their conditions need not be identical. Equal entries are not always repeated.

Tests used:
[1] = test system: mouse primary hepatocytes; test: 14C-acetate incorporation into total lipids in primary mouse hepatocytes; type: cell-based; settings: Hepatocyte, 4-hour period, read-out: IC50 in μM, inhibition of 14C-acetate incorporation in total lipids
Experimental: After perfusion, collagen digested liver cells were re-suspended in William's E media (11 mM glucose) (Gibco) supplemented with 10% fetal bovine serum (FBS) (Gibco), 2 mM L-glutamine (Gibco) and 1% Antibiotic-Antimycotic (Gibco) mixture and seeded in white opaque 96-well plates. On the following day, the cells were serum-starved for 2 hours, then treated with 0 μM, 0.1 μM, 0.3 μM, 0.5 μM, 1 μM, 3 μM, 10 μM, and 100 μM of Compound I-32, Compound I-1, or Compound III-1 or Reference Compound (e.g., Compounds A-E and bempedoic acid) in the presence of ^14C-Acetate (1 μCi/ml, PerkinElmer). Each of Compound I-32, Compound I-1, Compound III-1, and Reference Compound was solubilized in 100% DMSO to a final concentration of 100 mM stock solution. In the experimental condition, the stock solution was diluted in serum free media (William's E media (11 mM glucose) (Gibco), 2 mM L-glutamine (Gibco) and 1% Anti biotic-Antimycotic) to yield the desired concentration of each compound. […] After 4 hours of treatment, the plates were washed two times with PBS (×1) and 100 μL microscint fluid (Microscint O, part #601361) was added in each well. Plates were wrapped with aluminum foil and were shaken at 250 rpm for 2 h. After 2 h of shaking, ^14C incorporation into lipid was determined by liquid scintillation counting using a TopCount NXT Microplate Scintillation and Luminescence Counter (Perkin Elmer).
The effects of Compound I-32. Compound I-1, and Compound III-1 on mouse primary hepatocyte lipogenesis are represented in Table 1. Each Compound was assayed at a concentration of 0 μM (vehicle control), 0.1 μM, 0.3 μM, 0.5 μM, 1 μM, 3 μM, 10 μM, and 100 μM, unless otherwise noted. Statistically significant inhibition was determined by one-way ANOVA and Dennett's post hoc test where appropriate. […] IC50 values were determined by nonlinear regression. All statistical analyses were carried out using GraphPad Prism 8 software. A p-value of less than or equal 0.05 was considered significant.

[2] = test system: DEN-injected mice on high fat high fructose diet; test: NASH-HCC model by diethylnitrosamine (DEN) induction: tumors, ALT/AST, liver histology; type: in vivo, mouse; set-up: key to Fibrosis Score, individual mice: 1a: Mild (delicate) zone 3 perisinusoidal fibrosis, requires Masson's trichome stain to identify; 1b: Moderate(dense) zone 3 perisinusoidal fibrosis; 1c: Portal fibrosis only; NAFLD Activity Score, individual mice / NAFLD Activity Score, Avg: scale not given here; settings: 4 weeks; for Fibrosis Score, individual mice / NAFLD Activity Score, individual mice / No. of Surface Tumors, individual mice / NAFLD Activity Score, Avg / No. of Surface Tumors, Avg: 100 mg/kg daily oral gavage; for No. of Surface Tumors, individual mice: mice analyzed by Nanostring; for NAFLD Activity Score, Avg / No. of Surface Tumors, Avg: n=8; for liver fibrosis (trichrome stained livers): 100 mg/kg; for NAFLD activity scores (NAS) / liver inflammation scores / liver steatosis and ballooning scores: 30 and 100 mg/kg; for plasma ALT and AST levels: 30 or 100 mg/kg, dose-dependent
Experimental: Materials and Methods. All experiments were carried out using the guidelines approved by the Animal Research Ethics Board at McMaster University, Canada. Male mice obtained from Steinberg Lab Breeding Colony housed within the McMaster University Central Animal Facility were used for these experiments. The test agents were prepared by solubilizing them in a solution of sodium bicarbonate. Compound I-32 and Compound I-1 were administered at a dose of 30 or 100 mg/kg with a dosing volume of 10 ml/kg by daily oral gavage for 4 weeks. This route was selected because it simulates the oral administration route intended for use in human clinical studies and ensures the correct dose of compound is ingested by each animal. Data are expressed as means±the standard error of the mean. Statistical comparisons were carried out using a one-way analysis of variance followed by Dunnett's post hoc test using GraphPad Prism 8 software. A p-value of less than or equal to 0.05 will be used as the criterion of significance.
Experimental Protocol. At 2 weeks of age mice were injected with diethylnitrosamine (DEN) at 25 mg/kg body weight. After weaning mice were housed with littermates and fed a normal chow diet (Teklad 8640 22/5). […] After 7.5 months, mice were bled from the tail vein and plasma alpha-fetoprotein (AFP) levels were determined. AFP is a serum biomarker of HCC progression in humans and mice treated with DEN. At 8 months, mice were divided into 5 groups, based on mean AFP levels and then received a single daily dose of either vehicle (1.5% CMC and 0.2% Tween-20) or 30 mg/kg or 100 mg/kg of Compound I-32 or Compound I-1 via gavage. Throughout the experiments mice were housed in ventilated cage racks with ad libitum access to the food and water. An automatic timing device was used to maintain an alternating 12-hour cycle of light and dark.
After 4 weeks of daily treatments mice were anesthetized by I.P. injection of Ketamine/Xylazine (150 mg/12.4 mg/kg, respectively) in saline. When anesthetic plane has been achieved, 0.5 ml of blood was drawn by cardiac puncture, and plasma was isolated and frozen in liquid nitrogen. The liver was excised intact and rinsed briefly in PBS on ice. The liver was weighed, a photo was taken and the number of visible lesions on the surface of the liver was counted and recorded. A portion of tumor-free liver (˜200 mg, caudate lobe) and up to three individual tumors were removed, flash frozen in liquid nitrogen and stored for molecular analysis. The remainder of the liver was placed in 10% formalin, fixed for 48 hours, and stored in 70% ethanol until it was embedded in paraffin, sectioned, and mounted on slides for histological analysis.
AFP assay. Before starting the treatment, mice were bled from the tail vein and plasma alpha-fetoprotein (AFP) levels were determined using mouse alpha-Feto protein/AFP Duoset ELISA kit (R&D Systems, Inc., MN, USA) as recommended by the manufacturer. 100 μl sample (1:1000 in reagent diluent) was added on each well of 96-well plate coated with mouse AFP capture antibody. Next, the plates were washed with wash buffer and 100 μl detection antibody was added to each well, followed by the Streptavidin HRP and substrate solution. The reaction was stopped by stop solution and the optical density of each well was measured in a microplate reader set to 450 nm. After measuring AFP levels, mice were divided into five groups (>800 ng/ml) and treatment was initiated.
ALT/AST assay. Plasma Alanine Transaminase (ALT) and Aspartate Transaminase (AST) levels were determined using ALT (CAK1002, Cohesion Biosciences) and AST (CAK 1004, Cohesion Biosciences) activity kits following the manufacturer instructions. 10 μl of plasma sample was added with 50 μl of substrate in 96-well plate. The reaction was carried out for 30 minutes at 37° C., detected by dye reagent I and II and absorbance was measured at 520 nm. […]

CC(C)(CCCCc1cccc(CCCCC(C)(C)C(=O)O)c1)C(=O)O [Compound I-32, 6-[3-(5-carboxy-5-methylhexyl)-phenyl]-2,2-dimethylhexanoic acid]
IC50 [1]: 0.34 µM
Fibrosis Score, individual mice [2]: 1b (4×) and 1c and 1a (3×)
NAFLD Activity Score, individual mice [2]: 2 and 5 and 4 (3×) and 6 and 3 and 1
No. of Surface Tumors, individual mice [2]: 7 and 6 and 3 (2×) and 1 and 30 and 4 and 2
NAFLD Activity Score, Avg [2]: 3.625
No. of Surface Tumors, Avg [2]: 7
liver fibrosis (trichrome stained livers) [2]: fibrosis was significantly reduced
NAFLD activity scores (NAS) [2]: reduced NAFLD activity scores (NAS) at both 30 and 100 mg/kg
liver inflammation scores [2]: without altering inflammation scores
liver steatosis and ballooning scores [2]: dramatically reduced steatosis
plasma ALT and AST levels [2]: significantly decreased

CC(C)(CCCCc1ccc(CCCCC(C)(C)C(=O)O)cc1)C(=O)O [Compound I-1, 6-[4-(5-carboxy-5-methylhexyl)-phenyl]-2,2-dimethylhexanoic acid]
IC50 [1]: 0.46 µM
reduction of the number of surface tumors ([2]; 30 mg/kg and 100 mg/kg daily oral): over 70%
Fibrosis Score, individual mice [2]: 1a (3×) and 1b (3×) and 1c (2×)
NAFLD Activity Score, individual mice [2]: 4 (4×) and 6 (2×) and 3 and 2
No. of Surface Tumors, individual mice [2]: 8 and 6 (2×) and 11 and 10 and 14 and 7 and 3
NAFLD Activity Score, Avg [2]: 4.1
No. of Surface Tumors, Avg [2]: 8.1
liver fibrosis (trichrome stained livers) [2]: fibrosis was significantly reduced
NAFLD activity scores (NAS) [2]: reduced NAFLD activity scores (NAS) at both 30 and 100 mg/kg
liver inflammation scores [2]: without altering inflammation scores
liver steatosis and ballooning scores [2]: dramatically reduced steatosis
plasma ALT and AST levels [2]: significantly decreased
